SMILES strings stand for the structures.

5 compounds from patent publication US20260345574A1, “POTENT AND SELECTIVE IRREVERSIBLE INHIBITORS OF IRAK1” (Dana-Farber Cancer Institute, Inc., priority 2022, published 2026) can be followed below.

One assay deals with IRAK1 (Homo sapiens, UniProt P51617). Put plainly: Adapta Universal Kinase Assay (ThermoFisher) against IRAK1. Format: biochemical. Conditions: Histone H3 (1-20) peptide substrate, 60 minutes at room temperature. The procedure: To measure the IC50 values of the compounds herein against IRAK1, the Adapta Universal Kinase Assay (ThermoFisher) was used. Briefly, 100 nL of different concentrations of the compounds in 100% DMSO were added to each well of a 384-well plate (Corning Cat. #4512). 2.4 μL of 30 mM HEPES, 2.5 μL of 4× ATP solution (in water), and 5 μL of 2× IRAK1/Histone H3 (1-20) peptide mixture (prepared in 50 mM HEPES pH 7.5, 0.01% BRIJ-35, 10 mM MgCl2, 1 mM EGTA) were added to each well. The plate was shaken for 30 seconds and centrifuged for 1 minute at 1000×g. The plate was then incubated at room temperature for 60 minutes. 5 μL of Detection Mix was added to each well. The plate was shaken for 30 seconds and centrifuged for 1 minute at 1000×g. The plate was then incubated at room temperature for 60 minutes. The plate was subsequently read on a fluorescence plate reader, and the emissions ratio was calculated to determine the ratio of ATP to ADP. Emissions Ratio=AF647 Emission (665 nm)/Europium Emission (615 nm).
IRAK1, sequence (P51617 whole entry): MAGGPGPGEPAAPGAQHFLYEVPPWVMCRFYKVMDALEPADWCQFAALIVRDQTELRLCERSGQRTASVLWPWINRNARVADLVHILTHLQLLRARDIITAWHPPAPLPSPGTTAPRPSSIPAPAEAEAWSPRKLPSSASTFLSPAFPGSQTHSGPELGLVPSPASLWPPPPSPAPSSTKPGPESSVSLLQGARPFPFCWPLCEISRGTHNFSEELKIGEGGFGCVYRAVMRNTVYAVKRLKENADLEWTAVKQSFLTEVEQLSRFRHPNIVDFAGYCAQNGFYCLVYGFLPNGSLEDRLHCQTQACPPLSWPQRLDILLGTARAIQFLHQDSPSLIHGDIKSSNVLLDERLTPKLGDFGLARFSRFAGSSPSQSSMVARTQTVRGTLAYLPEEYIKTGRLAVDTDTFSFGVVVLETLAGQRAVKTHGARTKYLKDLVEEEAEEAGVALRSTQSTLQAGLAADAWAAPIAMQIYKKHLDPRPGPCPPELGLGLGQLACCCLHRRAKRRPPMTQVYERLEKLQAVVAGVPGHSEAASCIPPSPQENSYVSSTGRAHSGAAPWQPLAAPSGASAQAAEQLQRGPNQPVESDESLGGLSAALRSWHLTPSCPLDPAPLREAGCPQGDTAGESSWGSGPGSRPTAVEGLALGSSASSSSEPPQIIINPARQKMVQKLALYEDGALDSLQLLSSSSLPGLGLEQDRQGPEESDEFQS

Another assay addresses T1, IRAK4 (Homo sapiens, UniProt Q9NWZ3).
T1 sequence (Q9NWZ3 1-460): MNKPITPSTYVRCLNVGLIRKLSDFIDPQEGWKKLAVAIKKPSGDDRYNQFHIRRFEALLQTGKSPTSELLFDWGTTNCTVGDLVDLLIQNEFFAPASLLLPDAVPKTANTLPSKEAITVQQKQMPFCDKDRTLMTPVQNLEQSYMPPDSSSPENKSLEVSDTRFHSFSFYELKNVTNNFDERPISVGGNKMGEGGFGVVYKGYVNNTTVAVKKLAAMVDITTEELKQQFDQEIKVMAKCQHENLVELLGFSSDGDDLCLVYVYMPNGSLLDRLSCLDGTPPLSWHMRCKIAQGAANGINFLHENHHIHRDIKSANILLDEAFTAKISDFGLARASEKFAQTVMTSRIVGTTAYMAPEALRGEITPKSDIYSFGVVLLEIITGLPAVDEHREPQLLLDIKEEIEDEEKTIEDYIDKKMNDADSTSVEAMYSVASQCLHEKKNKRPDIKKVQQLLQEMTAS
In words: Z'-LYTE assay (ThermoFisher) against IRAK4. The assay is classed as biochemical. The note with it: Ser/Thr 07 substrate, 60 minutes at room temperature. The procedure:
To measure the IC50 values of compounds herein against IRAK4, a Z′-LYTE assay (ThermoFisher) was used. Briefly, 2.5 μL of different concentrations of the compounds in 1% DMSO were added to 2.4 μL kinase buffer (50 mM HEPES pH 7.5, 0.01% BRIJ-35, 10 mM MgCl2, 1 mM EGTA) in each well of a 384-well plate (Corning Cat. #3676). 5 μL of 2× IRAK4/Ser/Thr 07 mixture (prepared in 50 mM HEPES pH 7.5, 0.01% BRIJ-35, 10 mM MnCl2, 2 mM DTT, and 0.02% NaN3) and 2.5 μL of 4× ATP solution (4× ATP, 50 mM HEPES, pH 7.5, 0.01% BRIJ-35, 10 mM MgCl2, 1 mM EGTA) were added to each well. The plate was shaken for 30 seconds, and then incubated at room temperature for 60 minutes. 5 μL of a 1:100000 dilution of Development Reagent A was added to each well. The plate was shaken for 30 seconds and incubated for 60 minutes at room temperature. The plate was subsequently read on a fluorescence plate reader, and the emissions ratio was calculated to determine the ratio of Ser/Thr 07 phosphorylated by the reaction. Emissions Ratio=Coumarin Emission (443 nm)/Flourescein Emission (520 nm).

By IC50 is commonly meant the point on the concentration scale where inhibition reaches its midpoint. As to `C=CC(=O)N1CCC[C@H](c2nc(-c3ccc(NC(=O)c4cccc(-c5[nH]ncc5Cl)n4)c(F)c3)no2)C1` [Compound 089, (S)-N-(4-(5-(1-acryloylpiperidin-3-yl)-1,2,4-oxadiazol-3-yl)-2-fluorophenyl)-6-(4-chloro-1H-pyrazol-5-yl)picolinamide], the values for the IC50 on IRAK1 and against IRAK4 were 21.1 nM and more than 10000 nM, respectively.

Turning to `C=CC(=O)N1C[C@@H](c2nc(-c3ccc(NC(=O)c4cccc(-c5ccn[nH]5)n4)c(F)c3)no2)CC(F)(F)C1` [Compound 090, (S)-N-(4-(5-(1-acryloyl-5,5-difluoropiperidin-3-yl)-1,2,4-oxadiazol-3-yl)-2-fluorophenyl)-6-(1H-pyrazol-5-yl)picolinamide], the IC50 at IRAK1 is 6.62 nM; against IRAK4, more than 10000 nM.

As for `C=CC(=O)N1CC(c2nc(-c3ccc(NC(=O)c4cccc(-c5[nH]ncc5Cl)n4)c(F)c3)no2)CC(F)(F)C1` (stereo not shown) [Compound 092, N-(4-(5-(1-acryloyl-5,5-difluoropiperidin-3-yl)-1,2,4-oxadiazol-3-yl)-2-fluorophenyl)-6-(4-chloro-1H-pyrazol-5-yl)picolinamide], the IC50 was 9.93 nM against IRAK1 and more than 10000 nM on IRAK4.

Take `C=CC(=O)N1CC(c2nc(-c3ccc(NC(=O)c4cccc(-c5[nH]ncc5C)n4)c(F)c3)no2)CC(F)(F)C1` (stereo not shown) [Compound 093, N-(4-(5-(1-acryloyl-5,5-difluoropiperidin-3-yl)-1,2,4-oxadiazol-3-yl)-2-fluorophenyl)-6-(4-methyl-1H-pyrazol-5-yl)picolinamide]: the IC50 on IRAK1 is 8.3 nM; on IRAK4 it was more than 10000 nM.

For `C=CC(=O)N[C@@H]1CNC[C@H](c2nc(-c3ccc(NC(=O)c4cccc(-c5ccn[nH]5)n4)c(F)c3)no2)C1` [Compound 098, N-(4-(5-((3R,5S)-5-acrylamidopiperidin-3-yl)-1,2,4-oxadiazol-3-yl)-2-fluorophenyl)-6-(1H-pyrazol-5-yl)picolinamide], the IC50 is 45.9 nM at IRAK1 and more than 10000 nM against IRAK4.
